Measured values taken from the NIST ThermoML archive (doi:10.1021/je3007138).
Numbers after ± are expanded uncertainties.

Details: 351.2 K; Liquid; Ebulliometric method (Recirculating still)

## CCO [ethanol]
  vapor or sublimation pressure: 101.3 ± 3 kPa
